In article PMC11546786, “Designing Analogs of SAAP-148 with Enhanced Antimicrobial and Anti-LPS Activities” (International Journal of Molecular Sciences, 2024):
Ends that are not written are not given here.

Experiments:
[1] = Reversed-phase HPLC retention time as measure of peptide hydrophobicity; assay type: physicochemical; conditions: retention time by reverse-phase HPLC, reflects hydrophobicity difference between analogues
human erythrocytes = assay: Haemolytic activity; assay type: cell-based
Protocol: The haemolytic activity of the peptides was evaluated using a standard procedure with minor adjustments. Fresh human erythrocytes were washed thrice and subsequently resuspended at 1.25% haematocrit in PBS. Forty microlitres PBS-diluted peptide solution was added to a 96-well plate (Corning Inc., Lowell, MA, USA), and 160 μL of erythrocytes was added. After incubation at 37 °C for 30 min, the samples were centrifuged, and the absorbance of the supernatant was measured at 450 nm using a multi-well microplate reader (SpectraMax M5; Molecular Devices, Sunnyvale, CA, USA) and compared with the 100% haemolysis caused by 0.1% Triton X-100. The percentage of haemolysis was calculated according to the equation: Haemolysis%=Asample−Ablank/Atriton−Ablank×100

E. coli = assay: Membrane damage, PI staining and flow cytometry; assay type: cell-based, Escherichia coli; conditions: 6.25 μM peptide, 30 min
Protocol: Propidium iodide (PI) was utilized as a marker for assessing the structural integrity of cell membranes and the occurrence of cell death. The impact of peptides on BEAS-2B cells, E. coli, and S. aureus was investigated by treating the cells with peptides followed by PI staining and flow cytometry (FACS) analysis to evaluate peptide-induced membrane damage. Table 5 presents the results of PI staining in BEAS-2B cells (1 × 10^6) following treatment with peptides at a concentration of 6.25 μM. […] FACS analysis at a peptide concentration of 6.25 μM was employed to determine the membrane damage caused by peptides in E. coli and S. aureus cells (Table 5).
Peptide-induced membrane damage was evaluated by quantifying the influx of propidium iodide (PI). BEAS-2B cells (1 × 10^6 cells in 50 μL) were exposed to a final concentration of 6.25 μM peptide and incubated at 37 °C for 30 min, followed by PBS washing and re-suspension in PI solution (dissolved in PBS) at a final concentration of 2 μg/mL. Bacteria were cultured to mid-log phase at 37 °C, then diluted to an OD600 of 0.5 in phosphate-buffered saline (PBS). […] The bacteria were harvested and re-suspended in PI solution, with fluorescence signal analysis conducted using flow cytometry (Cytomics FC 500, Beckman Coulter, Indianapolis, IN, USA).

Substance: LKRVWKRVFKLKKRYWRQLKKPVR-NH2 [SAAP-7]
- Rt [1]: 12.897 min
- fold increase of MHC over that of SAAP-148 (human erythrocytes): 133.33 fold
- percentage of PI-positive cells, E. coli (E. coli): 34.9%
